# Measured values reported in patent US20110183842A1, “Triazole and Imidazole Compounds, Use Thereof and Agents Containing Them” (BASF SE, priority 2008, published 2011).
# Test system: Phakopsora pachyrhizi
# Test: Curative activity against soybean rust caused by Phakopsora pachyrhizi (greenhouse, soybean seedlings)
# Assay type: in vivo
# Details: 300 ppm active compound, sprayed to runoff two days after inoculation of soybean seedlings, rated after a further 10 days; untreated plants 90% infected
# Protocol: The active compounds were prepared separately or together as a stock solution with 25 mg of active compound, which was made up to 10 ml with a mixture of acetone and/or DMSO and the emulsifier Uniperol® EL (wetting agent with emulsifying and dispersant action based on ethoxylated alkylphenols) in the volume ratio solvent/emulsifier of from 99 to 1. Subsequently, it was made up to 100 ml with water. This stock solution was diluted with the described solvent/emulsifier/water mixture to the active compound concentration indicated below. Alternatively to this, the active compounds were used as a commercially available ready-to-use solution and diluted with water to the active compound concentration indicated.
# Leaves of soybean seedlings grown in pots were inoculated with a spore suspension of soybean rust (Phakpsora pachyrhizi). The pots were then placed in a chamber of high atmospheric humidity (90 to 95%) and 23 to 27° C. for 24 hours. During this time, the spores germinated and the germ tubes penetrated into the leaf tissue. The infected plants were then cultivated further in a greenhouse at temperatures between 23 and 27° C. and 60 to 80% relative atmospheric humidity. After two days, the plants were sprayed to runoff point with the active compound solution described above at the active compound concentration indicated below. After the spray coating had dried on, the test plants were cultivated in a greenhouse at temperatures between 23 and 27° C. and 60 to 80% relative atmospheric humidity for a further 10 days. The extent of the rust fungus development on the leaves was then determined visually in % infection.
row,Compound,"extent of the rust fungus development on the leaves, determined visually in % infection [%]"
1,"CC(C)(C)C(O)C(CCCCOc1ccccc1F)n1ncnc1S (stereo not drawn) [I.A1, 8-(2-fluorophenoxy)-4-(5-mercapto-[1,2,4]triazol-1-yl)-2,2-dimethyloctan-3-ol]",15
2,"CC(C)(C)C(O)C(CCCCOc1cc(F)ccc1F)n1ncnc1S (stereo not drawn) [I.A4, 8-(2,5-difluorophenoxy)-4-(5-mercapto-[1,2,4]triazol-1-yl)-2,2-dimethyloctan-3-ol]",15
3,"CC(C)(C)C(O)C(CCCCOc1c(F)cccc1Cl)n1ncnc1S (stereo not drawn) [I.A5, 8-(2-Chloro-6-fluorophenoxy)-4-(5-mercapto-[1,2,4]triazol-1-yl)-2,2-dimethyloctan-3-ol]",15
